Data on 15 molecules can be found in article PMC10127268, “Rational Design of Phosphorylation-Responsive Coiled Coil-Peptide Assemblies” (ACS Synthetic Biology, 2023).

Like-named read-outs stand apart in the source and are kept apart here.

For data set [1] the following is noted: even at 100 μM; cited from earlier work.
For data set [2] the following is noted: CD, PBS pH 7.4, 10 μM individual peptide; ref 5 (Edgell et al., 2020); cited from earlier work. As for the experimental part:
page 28: Table S4. Biophysical parameters for switchable peptides and complexes. Peptide(s) Helicity at 5 °C (%)a TM (°C) CC-Tet-A 37b < 20b CC-Tet-B 37b < 20b CC-Tet-A-S14 23 < 20 CC-Tet-A-S7 29 < 20 CC-Tet-A-S21 25 < 20 CC-Tet-B-RRXS14 26 < 20 CC-Tet-A + B 87b > 95b CC-Tet-A-S14 + B-RRXS14 67 62 CC-Tet-A-S7 + B-RRXS14 70 66 CC-Tet-A-S21 + B-RRXS14 81 72 apCC-Tet-A-S10 48 < 20 apCC-Tet-A-S17 42 < 20 apCC-Tet-B-S20 40 < 20 apCC-Tet-B-RRXS13 39 < 20 apCC-Tet-B-RRXS20 38 < 20 apCC-Tet-A-S10 + B-S20 93 > 95 apCC-Tet-A-S10 + B-RRXS20 80 75 apCC-Tet-A-S17 + B-RRXS13 84 72 apCC-Tet-A-S17 + B-RRXS20 ...

The nature of data set [3]: CD spectroscopy, helicity at 5 °C. Format: physicochemical. The conditions noted are these: PBS pH 7.4, 10 μM individual peptide. As for the experimental part: (§1) CD spectra and thermal denaturation curves were obtained using a JASCO J810 or 815 spectropolarimeter fitted with a Peltier temperature controller. CD spectra (260 to 190 nm, with 1 nm step size, 100 nm.min^–1 scanning speed, 1 nm bandwidth and 1 s response time) were measured in PBS (137 mM NaCl, 2.7 mM KCl, and 10 mM phosphate buffer, pH 7.4) at 5 °C in quartz cuvettes. Thermal denaturation experiments were performed using 10 μM individual peptide concentration in a 5 mm cuvette. For thermal denaturation experiments, the CD signal at 222 nm was recorded at 1 °C intervals upon heating from 5 to 95 °C at a rate of 40 or 60 °C/h (1 nm interval, 1 nm bandwidth, 16 s response time). Data was buffer subtracted, and then normalized for peptide concentration, number of amide bonds present, and cuvette path length to give the mean residue ellipticity (MRE). Midpoints of thermal denaturation were calculated using the second derivative of the corresponding thermal denaturation curve. Fraction helix (%) was calculated using the following equation (where MREcoil = 640 – 45T; T, temperature (°C); n, number of amide bonds in sample including C-terminal amide):[68] [drawing 2]

The nature of data set [4]: Thermal denaturation monitored by CD (MRE222), midpoint TM. Format: physicochemical. To be noted: for TM (°C), midpoint of thermal unfolding: CD at 222 nm, 5 to 95 °C, PBS pH 7.4, 10 μM individual peptide; for folding and thermal stability by CD, in words: PBS pH 7.4, 10 µM individual peptide. As for the experimental part:
as §1

For data set [5], the target named is CC-Tet-A-S14. The data set is described as follows: Isothermal titration calorimetry (ITC) of CC-Tet-B-RRXS14 into CC-Tet-A-S14. Format: binding. To be noted: 200 μM CC-Tet-B-RRXS14 into 20 μM CC-Tet-A-S14, PBS, 37 °C, heterodimer model, global fit n = 3, read-out: observable KD (concentration at which the complex is half folded). How it is done: To model the disassembly of the A2B2 complex into the unfolded peptides A and B, we needed to determine the dissociation constant (KD) and use this to estimate the forward and reverse rate constants, koff and kon (Figure 5). To do this, we used isothermal titration calorimetry (ITC), titrating CC-Tet-B-RRXS14 into 20 μM CC-Tet-A-S14 at 37 °C, and the heat released upon binding was measured. […] We contend that this sub-μM KD—which is consistent with our CD measurements (Figure S30)—is close to ideal for use in synthetic biology systems in cells and in vitro, as functioning at μM concentrations leaves the system poised in a folded state, but close to unfolding, rendering it receptive to phosphorylation-induced switching.
Peptides were dissolved in PBS buffer to a concentration around 1 mM and a volume of 1 mL. Samples were then individually dialyzed into 1.5 L of PBS with gentle stirring overnight using a Mini Dialysis Kit (Cyvita) with a 1 kDa membrane cut off. Sample concentration was subsequently remeasured to account for changes in volume because of diffusion during dialysis. […]
To analyze the data, NITPIC, SEDPHAT, and GUSSI were used.[72]−[74] […] Following this, experiments were analyzed using SEDPHAT, which allowed correction of concentration deviations and outlier injection exclusion, after which data was fitted to a heterodimer model (as no heterotetramer model was available). […]
(In general: Isothermal titration calorimetry measures the heat released or taken up as one component is titrated into another.)

Data set [6] in a line: Sedimentation-velocity analytical ultracentrifugation. To be noted: PBS pH 7.4, 20 °C, 70 μM of each peptide for mixtures. Format: physicochemical. As for the experimental part: Sedimentation-velocity (SV) experiments were conducted at 20 °C in a Beckman-Optima XL-I analytical ultracentrifuge using an An-60 Ti rotor. Samples were prepared in PBS at 140 μM total peptide concentration. Samples were centrifuged at a speed of 50,000 or 60,000 rpm. The partial specific volume (v̅) for each peptide was calculated and data sets were fitted to a single, ideal species model using SEDFIT. Sedimentation-equilibrium (SE) experiments were conducted at 20 °C in a Beckman-Optima XL-I analytical ultracentrifuge using an An-50 Ti rotor. Samples were prepared in PBS at 70 μM total peptide concentration. Samples were centrifuged at a range of speeds from 18,000–39,000 rpm with defined intervals, and 8 h between subsequent scans. Data sets were analyzed using SEDPHAT.

A further data set addresses T1, apCC-Tet-A-S17 (N-terminal acetyl; C-terminal amide).
T1 chain: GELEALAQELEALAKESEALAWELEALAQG
As to the kind of experiment: circular dichroism (Job plot); fraction helix at different ratios of the two peptides, total peptide concentration 20 μM, PBS pH 7.4. To be noted: both partners purified.

Data set [7] has as its target T2, CC-Tet-A-S14 (N-terminal acetyl; C-terminal amide).
T2 chain: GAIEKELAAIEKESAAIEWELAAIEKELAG
As to the kind of experiment: kinetic model fitted to the CD phosphorylation time course; ordinary differential equations (Berkeley Madonna); koff and kon optimised with K_D(T) held at 3.18 × 10^-19 M^3; tetramer A2B2 to unfolded peptides A and B; 37 °C, 10 μM of each peptide. The conditions noted are these: both partners purified.

Data set [8] has as its target T2, CC-Tet-A-S14. As to the kind of experiment: ITC; 200 μM CC-Tet-B-RRXS14 injected into 20 μM CC-Tet-A-S14, 37 °C, PBS; fitted to a heterodimer model, global fit of three experiments; observable (apparent) KD. The conditions noted are these: both partners purified.

Usually stoichiometry N stands for the number of molecules, sites or subunits per partner or assembly. In general, koff refers to a measure of how fast the partners let go of each other. Read a high koff as a short-lived complex. As usually defined, the kon is a measure of how fast the partners come together. Lower therefore signals slower complex formation.

As for “Ac-G AIEK ELAAIEK ELAAIEW ELAAIEK ELA G-NH2 [CC-Tet-A, acidic peptide of the previously published parallel heterotetramer CC-Tet-A2B2]”, the “self-association of individual peptide” value in data set [1] is given as “do not self-associate”. The “TM (°C), midpoint of thermal unfolding” value in data set [2] is below 20 °C.
On to “Ac-G AIEK ELAAIEK ELAAIEW ESAAIEK ELA G-NH2 [CC-Tet-A-S21, CC-Tet-A variant with Ser at position 21]”, for which the “Helicity at 5 °C (%)” value in [3] is 25%. Besides, the “TM (°C), midpoint of thermal unfolding” value in data set [4] was below 20 °C.
With “Ac-G AIEK ELAAIEK ESAAIEW ELAAIEK ELA G-NH2 [CC-Tet-A-S14, CC-Tet-A variant with Ser at position 14]”, the “Helicity at 5 °C (%)” value in data set [3] was determined as 23%. Besides, the “TM (°C), midpoint of thermal unfolding” value in [4] was below 20 °C.
Consider “Ac-G AIEK ESAAIEK ELAAIEW ELAAIEK ELA G-NH2 [CC-Tet-A-S7, CC-Tet-A variant with Ser at position 7]”, for which, in data set [3], the “Helicity at 5 °C (%)” value was found to be 29%. The “TM (°C), midpoint of thermal unfolding” value in [4] was below 20 °C.
For “Ac-G AIKQ KLAAIKQ KLAAIKW KLAAIKQ KLA G-NH2 [CC-Tet-B, basic peptide of the previously published parallel heterotetramer CC-Tet-A2B2]”, in data set [1], the “self-association of individual peptide” value is “do not self-associate”. Also, the “TM (°C), midpoint of thermal unfolding” value in data set [2] was below 20 °C.
On to “Ac-G AIKQ KLAAIRR KSAAIKW KLAAIKQ KLA G-NH2 [CC-Tet-B-RRXS14, basic parallel peptide with PKA site R-R-X-S, Ser at position 14]”, for which the Kd on CC-Tet-A-S14 [5] is 0.542 µM. In addition, in data set [3], the “Helicity at 5 °C (%)” value was 26%. Also, the “TM (°C), midpoint of thermal unfolding” value in data set [4] is below 20 °C.
Consider “Ac-G ELEALAQ ELEALAK ELEALAW ELEALAQ G-NH2 [apCC-Tet-A1, initial acidic antiparallel design]”, for which the “oligomeric state from SV AUC (x monomer mass)” value in [6] is 4.5 x monomer mass. The “folding and thermal stability by CD, in words” value in data set [4] is listed as “stably folded”.
With “Ac-G ELEALAQ ELEALAK ESEALAW ELEALAQ G-NH2 [apCC-Tet-A-S17, acidic antiparallel peptide with Ser at position 17]”, the “Helicity at 5 °C (%)” value in data set [3] is 42%. Besides, the “TM (°C), midpoint of thermal unfolding” value in data set [4] is below 20 °C.
In the case of “Ac-G ELEALAQ ESEALAK ELEALAW ELEALAQ G-NH2 [apCC-Tet-A-S10, acidic antiparallel peptide with Ser at position 10]”, the “Helicity at 5 °C (%)” value in [3] came to 48%. Moreover, the “TM (°C), midpoint of thermal unfolding” value in data set [4] was below 20 °C.
On to “Ac-G KLKALAQ KLKALAK KLKALAW KLKALAQ G-NH2 [apCC-Tet-B1, initial basic antiparallel design]”, for which, in data set [6], the “oligomeric state from SV AUC (x monomer mass)” value was 5.2 x monomer mass. Further, in data set [4], the “folding and thermal stability by CD, in words” value is on record as “stably folded”.
As for “Ac-G KLKALAQ KLKALAK KLKASAW KLKALAQ G-NH2 [apCC-Tet-B-S20, basic antiparallel peptide with Ser at position 20]”, the “Helicity at 5 °C (%)” value in [3] is given as 40%. Also, the “TM (°C), midpoint of thermal unfolding” value in [4] was below 20 °C.
Turning to “Ac-G KLKALAQ KLKALAK KRRASAW KLKALAQ G-NH2 [apCC-Tet-B-RRXS20, basic antiparallel peptide with PKA site, Ser at position 20]”, the “Helicity at 5 °C (%)” value in data set [3] is given as 38%. In addition, the “TM (°C), midpoint of thermal unfolding” value in data set [4] was below 20 °C.
For the molecule “Ac-G KLKALAQ KRRASAK KLKALAW KLKALAQ G-NH2 [apCC-Tet-B-RRXS13, basic antiparallel peptide with PKA site, Ser at position 13]”, in [3], the “Helicity at 5 °C (%)” value was found to be 39%. Also, the “TM (°C), midpoint of thermal unfolding” value in data set [4] was below 20 °C.
Turning to Ac-GKLKALAQKLKALAKKLKASAWKLKALAQG-NH2 [apCC-Tet-B-S20], in the data set with apCC-Tet-A-S17, the “stoichiometry N” value stood at 1.
In the data set with CC-Tet-A-S14 [7], Ac-GAIKQKLAAIRRKSAAIKWKLAAIKQKLAG-NH2 [CC-Tet-B-RRXS14] gave an off-rate (koff) of 0.0038 s⁻¹ and a kon of 229000 M⁻¹ s⁻¹. For the same molecule, in the data set with CC-Tet-A-S14 [8], the Kd amounted to 0.542 µM and the “stoichiometry N” value is around 1.
